Measurements reported in patent US20240239785A1, “SUBSTITUTED 2-(2,6-DIOXOPIPERIDIN-3-YL)-5-(1-PIPERIDIN-4-YL)ISOINDOLINE-1,3-DIONE DERIVATIVES AND USES THEREOF” (Neomorph, Inc., priority 2021, published 2024).
Counter-ions that a name gives are not always drawn.

Target: T1, IKZF2 (Homo sapiens, UniProt Q96SW2+Q9UKS7)
T1 construct: endogenous in cells; host or cells: MOLT4 (CRISPR/Cas9 HiBit knock-in at the IKZF2 locus)
Test: MOLT4 IKZF2 HiBit assay
Format: cell-based
Conditions: MOLT4 IKZF2 HiBit cells; for DC50: 6 hours incubation, 10-point dose response from 30 μM; for Dmax at 30 µM: MOLT-4, 6 hr (Dmax), read-out: % reduction of IKZF2 @ 30 μM (6 hr)
Protocol: MOLT4 IKZF2 HiBit Assay Protocol:
This protocol used MOLT4 cells that were engineered using CRISPR/Cas9-mediated genomic insertion of HiBit, tagged to the N terminus of the IKZF2 coding sequence. Day 1. A 10-point dose response was created starting from 30 μM down to InM using a Tecan D300e. Next was added 8,000 cells/well of the MOLT4 IKZF2 HiBit cells to the compound plate. The compounds plate was incubated for 6 hours. Day 2. Nano-Glo HiBit Lytic Buffer/Nano-Glo HiBit Lytic substrate/LgBit Protein mix was added to each well and the compound plate was incubated for 15 minutes. Finally, luminescence signal was read using a BMG Labtech PHERAstar FSX. Data was normalized to DMSO and graphed using GraphPad Prism to determine the concentration points at which 50% of HiBiT-Helios degradation was achieved by each compound. The extent of degradation (range of luminescence) from the highest to lowest concentration points was calculated to determine Dmax.

T1 sequence (Q9UKS7 whole entry): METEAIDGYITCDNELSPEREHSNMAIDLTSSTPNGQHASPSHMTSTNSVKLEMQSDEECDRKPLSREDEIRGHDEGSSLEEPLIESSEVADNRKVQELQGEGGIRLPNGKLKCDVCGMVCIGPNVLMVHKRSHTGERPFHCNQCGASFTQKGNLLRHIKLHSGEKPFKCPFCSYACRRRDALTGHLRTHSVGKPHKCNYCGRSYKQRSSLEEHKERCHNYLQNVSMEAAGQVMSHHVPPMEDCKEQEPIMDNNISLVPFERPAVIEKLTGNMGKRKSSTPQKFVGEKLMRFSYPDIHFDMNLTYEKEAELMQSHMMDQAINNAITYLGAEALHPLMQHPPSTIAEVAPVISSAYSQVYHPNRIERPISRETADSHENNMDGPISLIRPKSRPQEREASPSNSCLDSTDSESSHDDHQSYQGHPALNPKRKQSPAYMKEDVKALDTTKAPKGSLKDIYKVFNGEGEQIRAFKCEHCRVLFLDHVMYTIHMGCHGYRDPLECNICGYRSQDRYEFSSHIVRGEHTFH
T1 sequence (Q96SW2 whole entry): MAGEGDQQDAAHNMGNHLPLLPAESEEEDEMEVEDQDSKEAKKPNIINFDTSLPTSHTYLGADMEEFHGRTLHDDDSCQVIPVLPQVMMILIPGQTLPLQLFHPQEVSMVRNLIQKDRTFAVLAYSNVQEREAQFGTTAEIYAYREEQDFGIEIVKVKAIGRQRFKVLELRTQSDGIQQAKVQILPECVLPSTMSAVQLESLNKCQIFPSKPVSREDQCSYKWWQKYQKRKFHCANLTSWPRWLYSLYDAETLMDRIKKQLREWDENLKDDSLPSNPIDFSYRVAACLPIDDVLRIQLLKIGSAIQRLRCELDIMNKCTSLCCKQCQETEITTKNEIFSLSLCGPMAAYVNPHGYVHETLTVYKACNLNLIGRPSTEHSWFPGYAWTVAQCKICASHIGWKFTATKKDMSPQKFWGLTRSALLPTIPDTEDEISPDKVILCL
T1 sequence (Q16531 whole entry partner): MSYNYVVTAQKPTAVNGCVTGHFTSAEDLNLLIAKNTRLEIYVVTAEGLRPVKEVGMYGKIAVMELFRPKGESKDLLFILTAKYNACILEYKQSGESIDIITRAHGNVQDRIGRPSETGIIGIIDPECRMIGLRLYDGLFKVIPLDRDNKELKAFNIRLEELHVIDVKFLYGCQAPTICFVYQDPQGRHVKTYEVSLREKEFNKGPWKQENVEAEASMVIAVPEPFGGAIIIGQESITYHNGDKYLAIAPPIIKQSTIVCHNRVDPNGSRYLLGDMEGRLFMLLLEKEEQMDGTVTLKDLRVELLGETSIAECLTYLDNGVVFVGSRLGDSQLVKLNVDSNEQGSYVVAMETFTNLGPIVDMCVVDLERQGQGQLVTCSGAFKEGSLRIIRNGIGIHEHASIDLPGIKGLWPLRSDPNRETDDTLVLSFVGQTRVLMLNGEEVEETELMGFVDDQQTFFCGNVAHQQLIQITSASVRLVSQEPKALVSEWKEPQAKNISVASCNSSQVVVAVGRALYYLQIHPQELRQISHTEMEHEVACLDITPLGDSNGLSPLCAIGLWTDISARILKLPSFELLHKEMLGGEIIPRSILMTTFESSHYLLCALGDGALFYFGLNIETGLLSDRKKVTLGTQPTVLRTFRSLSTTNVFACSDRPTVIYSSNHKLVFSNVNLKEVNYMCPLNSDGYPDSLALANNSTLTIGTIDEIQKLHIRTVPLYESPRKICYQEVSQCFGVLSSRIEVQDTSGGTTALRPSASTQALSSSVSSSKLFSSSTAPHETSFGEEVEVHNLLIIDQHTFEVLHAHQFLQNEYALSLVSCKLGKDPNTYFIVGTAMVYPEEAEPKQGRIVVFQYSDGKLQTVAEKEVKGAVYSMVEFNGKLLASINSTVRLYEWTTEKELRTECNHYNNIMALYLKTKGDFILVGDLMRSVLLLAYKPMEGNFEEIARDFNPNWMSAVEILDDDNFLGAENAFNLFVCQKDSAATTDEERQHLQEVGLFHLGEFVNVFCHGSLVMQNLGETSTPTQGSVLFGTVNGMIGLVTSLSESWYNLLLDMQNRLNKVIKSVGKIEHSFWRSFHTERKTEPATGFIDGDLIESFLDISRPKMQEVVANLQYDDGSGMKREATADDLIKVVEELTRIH

| SMILES | DC50 | Dmax at 30 µM |
| --- | --- | --- |
| O=C1CCC(N2C(=O)c3ccc(C4(O)CCN(Cc5ccncc5)CC4)cc3C2=O)C(=O)N1 (stereo not drawn) [Compound 70, 2-(2,6-dioxopiperidin-3-yl)-5-{4-hydroxy-1-[(pyridin-4-yl)methyl]piperidin-4-yl}-2,3-dihydro-1H-isoindole-1,3-dione, HCl salt] | 20 nM | 78% |
| CCCN1CCC(O)(c2ccc3c(c2F)C(=O)N(C2CCC(=O)NC2=O)C3=O)CC1 (stereo not drawn) [Compound 148, 2-(2,6-dioxopiperidin-3-yl)-4-fluoro-5-(4-hydroxy-1-propylpiperidin-4-yl)-2,3-dihydro-1H-isoindole-1,3-dione, HCl salt] | 30 nM | 73% |
| O=C1CCC(N2C(=O)c3ccc(C4(O)CCN(Cc5ccc6[nH]ccc6c5)CC4)cc3C2=O)C(=O)N1 (stereo not drawn) [Compound 144, 2-(2,6-dioxopiperidin-3-yl)-5-{4-hydroxy-1-[(1H-indol-5-yl)methyl]piperidin-4-yl}-2,3-dihydro-1H-isoindole-1,3-dione, formic acid salt] | 16 nM | 88% |
| O=C1CCC(N2C(=O)c3ccc(C4(O)CCN(Cc5ccc6ncn(-c7ccccn7)c(=O)c6c5)CC4)cc3C2=O)C(=O)N1 (stereo not drawn) [Compound 98, 2-(2,6-dioxopiperidin-3-yl)-5-(4-hydroxy-1-((4-oxo-3-(pyridin-2-yl)-3,4-dihydroquinazolin-6-yl)methyl)piperidin-4-yl)isoindoline-1,3-dione] | 1.5 nM | 72% |
| Cn1c(CN2CCC(O)(c3ccc4c(c3)C(=O)N(C3CCC(=O)NC3=O)C4=O)CC2)cc2ccccc21 (stereo not drawn) [Compound 142, 2-(2,6-dioxopiperidin-3-yl)-5-{4-hydroxy-1-[(1-methyl-1H-indol-2-yl)methyl]piperidin-4-yl}-2,3-dihydro-1H-isoindole-1,3-dione, formic acid salt] | 13 nM | 82% |
| O=C1CCC(N2C(=O)c3ccc(C4(O)CCN(Cc5ccccn5)CC4)cc3C2=O)C(=O)N1 (stereo not drawn) [Compound 68, 2-(2,6-dioxopiperidin-3-yl)-5-{4-hydroxy-1-[(pyridin-2-yl)methyl]piperidin-4-yl}-2,3-dihydro-1H-isoindole-1,3-dione, HCl salt] | 21 nM | 71% |
| CCCN1CCC(O)(c2ccc3c(c2)C(=O)N(C2CCC(=O)NC2=O)C3=O)CC1 (stereo not drawn) [Compound 146, 2-(2,6-dioxopiperidin-3-yl)-5-(4-hydroxy-1-propylpiperidin-4-yl)-2,3-dihydro-1H-isoindole-1,3-dione, HCl salt] | 43 nM | 69% |
| COC[C@H]1CC[C@H](CN2CCC(c3ccc4c(c3)C(=O)N(C3CCC(=O)NC3=O)C4=O)CC2)CC1 (stereo partly drawn) [Compound 85, trans-2-(2,6-dioxopiperidin-3-yl)-5-(1-((4-(methoxymethyl)cyclohexyl)methyl)piperidin-4-yl)isoindoline-1,3-dione formic acid] | – | 25% |
| Cn1ncc2cc(CN3CCC(O)(c4ccc5c(c4)C(=O)N(C4CCC(=O)NC4=O)C5=O)CC3)ccc21 (stereo not drawn) [Compound 145, 2-(2,6-dioxopiperidin-3-yl)-5-{4-hydroxy-1-[(1-methyl-1H-indazol-5-yl)methyl]piperidin-4-yl}-2,3-dihydro-1H-isoindole-1,3-dione, formic acid salt] | 4 nM | 83% |
| COCc1ccc(CN2CCC(O)(c3ccc4c(c3)C(=O)N(C3CCC(=O)NC3=O)C4=O)CC2)cc1 (stereo not drawn) [Compound 61, 2-(2,6-dioxopiperidin-3-yl)-5-(4-hydroxy-1-{[4-(methoxymethyl)phenyl]methyl}piperidin-4-yl)-2,3-dihydro-1H-isoindole-1,3-dione, HCl salt] | 5 nM | 83% |
| O=C1CCC(N2C(=O)c3ccc(C4CCN(Cc5ccc6ncn(-c7ccccn7)c(=O)c6c5)CC4)cc3C2=O)C(=O)N1 (stereo not drawn) [Compound 97, 2-(2,6-dioxopiperidin-3-yl)-5-(1-((4-oxo-3-(pyridin-2-yl)-3,4-dihydroquinazolin-6-yl)methyl)piperidin-4-yl)isoindoline-1,3-dione] | – | 36% |
| N#Cc1cccc(CN2CCC(O)(c3ccc4c(c3)C(=O)N(C3CCC(=O)NC3=O)C4=O)CC2)c1 (stereo not drawn) [Compound 42, 3-({4-[2-(2,6-dioxopiperidin-3-yl)-1,3-dioxo-2,3-dihydro-1H-isoindol-5-yl]-4-hydroxypiperidin-1-yl}methyl)benzonitrile] | 9 nM | 80% |
| CC(c1ccccc1)N1CCC(O)(c2ccc3c(c2)C(=O)N(C2CCC(=O)NC2=O)C3=O)CC1 (stereo not drawn) [Compound 35, 2-(2,6-dioxopiperidin-3-yl)-5-[4-hydroxy-1-(1-phenylethyl)piperidin-4-yl]-2,3-dihydro-1H-isoindole-1,3-dione, HCl salt] | 4 nM | 84% |
| COc1ccc(CN2CCC(O)(c3ccc4c(c3)C(=O)N(C3CCC(=O)NC3=O)C4=O)CC2)cn1 (stereo not drawn) [Compound 72, 2-(2,6-dioxopiperidin-3-yl)-5-{4-hydroxy-1-[(6-methoxypyridin-3-yl)methyl]piperidin-4-yl}-2,3-dihydro-1H-isoindole-1,3-dione, HCl salt] | 1 nM | 80% |
| Cn1ccc2cc(CN3CCC(O)(c4ccc5c(c4)C(=O)N(C4CCC(=O)NC4=O)C5=O)CC3)ccc21 (stereo not drawn) [Compound 141, 2-(2,6-dioxopiperidin-3-yl)-5-{4-hydroxy-1-[(1-methyl-1H-indol-5-yl)methyl]piperidin-4-yl}-2,3-dihydro-1H-isoindole-1,3-dione, HCl salt] | 11 nM | 86% |
| COC[C@H]1CC[C@H](CN2CCC(O)(c3ccc4c(c3)C(=O)N(C3CCC(=O)NC3=O)C4=O)CC2)CC1 (stereo partly drawn) [Compound 84, trans-2-(2,6-dioxopiperidin-3-yl)-5-(4-hydroxy-1-((4-(methoxymethyl)cyclohexyl)methyl)piperidin-4-yl)isoindoline-1,3-dione] | 8.3 nM | 60% |
| O=C1CCC(N2C(=O)c3ccc(C4(O)CCN(Cc5cccnc5)CC4)cc3C2=O)C(=O)N1 (stereo not drawn) [Compound 69, 2-(2,6-dioxopiperidin-3-yl)-5-{4-hydroxy-1-[(pyridin-3-yl)methyl]piperidin-4-yl}-2,3-dihydro-1H-isoindole-1,3-dione, formic acid salt] | 39 nM | 72% |
| CC(c1ccc(C(F)(F)F)cc1)N1CCC(O)(c2ccc3c(c2)C(=O)N(C2CCC(=O)NC2=O)C3=O)CC1 (stereo not drawn) [Compound 143, 2-(2,6-dioxopiperidin-3-yl)-5-(4-hydroxy-1-{1-[4-(trifluoromethyl)phenyl]ethyl}piperidin-4-yl)-2,3-dihydro-1H-isoindole-1,3-dione, HCl salt] | 6 nM | 84% |
| O=C1CCC(N2C(=O)c3ccc(C4(O)CCN(Cc5ccc(-c6nccs6)cc5)CC4)cc3C2=O)C(=O)N1 (stereo not drawn) [Compound 147, 2-(2,6-dioxopiperidin-3-yl)-5-(4-hydroxy-1-{[4-(1,3-thiazol-2-yl)phenyl]methyl}piperidin-4-yl)-2,3-dihydro-1H-isoindole-1,3-dione, HCl salt] | 8 nM | 88% |
| O=C1CCC(N2C(=O)c3ccc(C4(O)CCN(Cc5coc(-c6ccccc6)n5)CC4)cc3C2=O)C(=O)N1 (stereo not drawn) [Compound 91, 2-(2,6-dioxopiperidin-3-yl)-5-{4-hydroxy-1-[(2-phenyl-1,3-oxazol-4-yl)methyl]piperidin-4-yl}-2,3-dihydro-1H-isoindole-1,3-dione, HCl salt] | 21 nM | 60% |
| O=C1CCC(N2C(=O)c3ccc(C4(O)CCN(CC(O)c5ccccc5)CC4)cc3C2=O)C(=O)N1 (stereo not drawn) [Compound 149, 2-(2,6-dioxopiperidin-3-yl)-5-(4-hydroxy-1-(2-hydroxy-2-phenylethyl)piperidin-4-yl)isoindoline-1,3-dione] | 22 nM | 76% |
| N#Cc1ccc(CN2CCC(O)(c3ccc4c(c3)C(=O)N(C3CCC(=O)NC3=O)C4=O)CC2)cc1 (stereo not drawn) [Compound 57, 4-({4-[2-(2,6-dioxopiperidin-3-yl)-1,3-dioxo-2,3-dihydro-1H-isoindol-5-yl]-4-hydroxypiperidin-1-yl}methyl)benzonitrile] | 6 nM | 81% |
| O=C1CCC(N2C(=O)c3ccc(C4(O)CCN(Cc5ccccc5)CC4)c(F)c3C2=O)C(=O)N1 (stereo not drawn) [Compound 128, 5-(1-benzyl-4-hydroxypiperidin-4-yl)-2-(2,6-dioxopiperidin-3-yl)-4-fluoro-2,3-dihydro-1H-isoindole-1,3-dione, HCl salt] | 2 nM | 81% |
| O=C1CCC(N2C(=O)c3ccc(C4(O)CCN(Cc5ccn(-c6ccccc6)n5)CC4)cc3C2=O)C(=O)N1 (stereo not drawn) [Compound 94, 2-(2,6-dioxopiperidin-3-yl)-5-{4-hydroxy-1-[(1-phenyl-1H-pyrazol-3-yl)methyl]piperidin-4-yl}-2,3-dihydro-1H-isoindole-1,3-dione, HCl salt] | 8 nM | 79% |
| O=C1CCC(N2C(=O)c3ccc(C4(O)CCN(Cc5ccc6ncn(-c7cccnc7)c(=O)c6c5)CC4)cc3C2=O)C(=O)N1 (stereo not drawn) [Compound 99, 2-(2,6-dioxopiperidin-3-yl)-5-(4-hydroxy-1-{[4-oxo-3-(pyridin-3-yl)-3,4-dihydroquinazolin-6-yl]methyl}piperidin-4-yl)-2,3-dihydro-1H-isoindole-1,3-dione, formic acid salt] | 1 nM | 89% |
